Laboratory results as given in ChEMBL document CHEMBL3885861, “Open TG-GATES”.

Organism: Rattus norvegicus
Experiment: Open TG-GATES - Regimen: Daily Repeat
Type: toxicity, organism-based, Sprague-Dawley
Parameters: regimen Daily Repeat, gender Male, age 6 weeks
Settings: in vivo, po, 0 mg/kg, route gavage, dose level Control; for APTT / Bas / Eos / Fbg / Hb / Ht / Lym / MCH / MCHC / MCV / Mono / Neu / PT / Plat / RBC / Ret / WBC: tissue Blood; for KIDNEY_L / KIDNEY_R / KIDNEY_TOTAL: tissue Kidney; for LIVER: tissue Liver; for A/G / ALP / ALT / AST / BUN / CRE / Ca / Cl / DBIL / GLC / IP / K / LDH / Na / PL / RALB / TBIL / TC / TG / TP / gamma-GTP: tissue Plasma

CC[C@@H](CO)NCCN[C@@H](CC)CO [ETHAMBUTOL]
TERMINAL_BW (72 h, time 3 day): 245.1 g | APTT (72 h, time 3 day): 21.9 s | Bas (72 h, time 3 day): 0% | Eos (72 h, time 3 day): 1% | Fbg (72 h, time 3 day): 308.2 mg/dL | Hb (72 h, time 3 day): 13.6 g/dL | Ht (72 h, time 3 day): 38.8% | Lym (72 h, time 3 day): 80.6% | MCH (72 h, time 3 day): 21.9 pg | MCHC (72 h, time 3 day): 34.9% | MCV (72 h, time 3 day): 62.6 fL | Mono (72 h, time 3 day): 3.2% | Neu (72 h, time 3 day): 13.8% | PT (72 h, time 3 day): 16.1 s | Plat (72 h, time 3 day): 127.2 x10_4/uL | RBC (72 h, time 3 day): 619.8 x10_4/ul | Ret (72 h, time 3 day): 6.5% | WBC (72 h, time 3 day): 109.6 x10_2/uL | KIDNEY_L (72 h, time 3 day): 1.1 g | KIDNEY_R (72 h, time 3 day): 1.1 g | KIDNEY_TOTAL (72 h, time 3 day): 2.2 g | LIVER (72 h, time 3 day): 11.5 g | A/G (72 h, time 3 day): 1.1 | ALP (72 h, time 3 day): 1450 IU/L | ALT (72 h, time 3 day): 45.4 IU/L | AST (72 h, time 3 day): 68.6 IU/L | BUN (72 h, time 3 day): 19.2 mg/dL | CRE (72 h, time 3 day): 0.2 mg/dL | Ca (72 h, time 3 day): 10.9 mg/dL | Cl (72 h, time 3 day): 107 meq/L | DBIL (72 h, time 3 day): 0 mg/dL | GLC (72 h, time 3 day): 194.6 mg/dL | IP (72 h, time 3 day): 7.6 mg/dL | K (72 h, time 3 day): 4.4 meq/L | LDH (72 h, time 3 day): 172.4 IU/L | Na (72 h, time 3 day): 140.2 meq/L | PL (72 h, time 3 day): 155.6 mg/dL | RALB (72 h, time 3 day): 3 g/dL | TBIL (72 h, time 3 day): 0.004 mg/dL | TC (72 h, time 3 day): 78.4 mg/dL | TG (72 h, time 3 day): 123.2 mg/dL | TP (72 h, time 3 day): 5.7 g/dL | gamma-GTP (72 h, time 3 day): 1.4 IU/L | TERMINAL_BW ([…], time 7 day): 267.6 g | TERMINAL_BW ([…], time 14 day): 330.7 g | TERMINAL_BW ([…], time 28 day): 391.8 g | APTT ([…], time 7 day): 23.2 s | Bas ([…], time 7 day): 0% | Eos ([…], time 7 day): 1% | Fbg ([…], time 7 day): 338.4 mg/dL | Hb ([…], time 7 day): 14.1 g/dL | Ht ([…], time 7 day): 41.1% | Lym ([…], time 7 day): 83% | MCH ([…], time 7 day): 21.1 pg | MCHC ([…], time 7 day): 34.3% | MCV ([…], time 7 day): 61.4 fL | Mono ([…], time 7 day): 2.2% | Neu ([…], time 7 day): 12.8% | PT ([…], time 7 day): 15.4 s | Plat ([…], time 7 day): 110.1 x10_4/uL | RBC ([…], time 7 day): 671 x10_4/ul | Ret ([…], time 7 day): 5.1% | WBC ([…], time 7 day): 113 x10_2/uL | APTT ([…], time 14 day): 21.6 s | Bas ([…], time 14 day): 0% | Eos ([…], time 14 day): 0.8% | Fbg ([…], time 14 day): 321.6 mg/dL | Hb ([…], time 14 day): 14.4 g/dL | Ht ([…], time 14 day): 42.1% | Lym ([…], time 14 day): 80% | MCH ([…], time 14 day): 20.5 pg | MCHC ([…], time 14 day): 34.2% | MCV ([…], time 14 day): 60.1 fL | Mono ([…], time 14 day): 2.4% | Neu ([…], time 14 day): 15% | PT ([…], time 14 day): 16.3 s | Plat ([…], time 14 day): 103.5 x10_4/uL | RBC ([…], time 14 day): 701.6 x10_4/ul | Ret ([…], time 14 day): 4.4% | WBC ([…], time 14 day): 116.4 x10_2/uL | APTT ([…], time 28 day): 26.2 s | Bas ([…], time 28 day): 0% | Eos ([…], time 28 day): 1.2% | Fbg ([…], time 28 day): 315.8 mg/dL | Hb ([…], time 28 day): 14.7 g/dL | Ht ([…], time 28 day): 42.6% | Lym ([…], time 28 day): 83.4% | MCH ([…], time 28 day): 19.3 pg | MCHC ([…], time 28 day): 34.4% | MCV ([…], time 28 day): 56 fL | Mono ([…], time 28 day): 2.6% | Neu ([…], time 28 day): 11.4% | PT ([…], time 28 day): 15.6 s | Plat ([…], time 28 day): 106 x10_4/uL | RBC ([…], time 28 day): 761.2 x10_4/ul | Ret ([…], time 28 day): 3.1% | WBC ([…], time 28 day): 131.5 x10_2/uL | KIDNEY_L ([…], time 7 day): 1.1 g | KIDNEY_R ([…], time 7 day): 1.1 g | KIDNEY_TOTAL ([…], time 7 day): 2.2 g | KIDNEY_L ([…], time 14 day): 1.3 g | KIDNEY_R ([…], time 14 day): 1.3 g | KIDNEY_TOTAL ([…], time 14 day): 2.6 g | KIDNEY_L ([…], time 28 day): 1.4 g | KIDNEY_R ([…], time 28 day): 1.4 g | KIDNEY_TOTAL ([…], time 28 day): 2.8 g | LIVER ([…], time 7 day): 12.3 g | LIVER ([…], time 14 day): 14.5 g | LIVER ([…], time 28 day): 16.5 g | A/G ([…], time 7 day): 1.1 | ALP ([…], time 7 day): 1523.4 IU/L | ALT ([…], time 7 day): 43 IU/L | AST ([…], time 7 day): 69.6 IU/L | BUN ([…], time 7 day): 17.8 mg/dL | CRE ([…], time 7 day): 0.2 mg/dL | Ca ([…], time 7 day): 10.5 mg/dL | Cl ([…], time 7 day): 106.8 meq/L | DBIL ([…], time 7 day): 0 mg/dL | GLC ([…], time 7 day): 198 mg/dL | IP ([…], time 7 day): 7.3 mg/dL | K ([…], time 7 day): 4.1 meq/L | LDH ([…], time 7 day): 200.2 IU/L | Na ([…], time 7 day): 142.2 meq/L | PL ([…], time 7 day): 147.6 mg/dL | RALB ([…], time 7 day): 3 g/dL | TBIL ([…], time 7 day): 0.006 mg/dL | TC ([…], time 7 day): 75.4 mg/dL | TG ([…], time 7 day): 91.6 mg/dL | TP ([…], time 7 day): 5.6 g/dL | gamma-GTP ([…], time 7 day): 1.8 IU/L | A/G ([…], time 14 day): 1.2 | ALP ([…], time 14 day): 1341.2 IU/L | ALT ([…], time 14 day): 41 IU/L | AST ([…], time 14 day): 72.6 IU/L | BUN ([…], time 14 day): 19.6 mg/dL | CRE ([…], time 14 day): 0.2 mg/dL | Ca ([…], time 14 day): 10.5 mg/dL | Cl ([…], time 14 day): 106.4 meq/L | DBIL ([…], time 14 day): 0 mg/dL | GLC ([…], time 14 day): 196.6 mg/dL | IP ([…], time 14 day): 7.2 mg/dL | K ([…], time 14 day): 4 meq/L | LDH ([…], time 14 day): 191.2 IU/L | Na ([…], time 14 day): 141.6 meq/L | PL ([…], time 14 day): 139.6 mg/dL | RALB ([…], time 14 day): 3 g/dL | TBIL ([…], time 14 day): 0 mg/dL | TC ([…], time 14 day): 64.2 mg/dL | TG ([…], time 14 day): 116.4 mg/dL | TP ([…], time 14 day): 5.7 g/dL | gamma-GTP ([…], time 14 day): 1.6 IU/L | A/G ([…], time 28 day): 1 | ALP ([…], time 28 day): 977.2 IU/L | ALT ([…], time 28 day): 41 IU/L | AST ([…], time 28 day): 67 IU/L | BUN ([…], time 28 day): 19.4 mg/dL | CRE ([…], time 28 day): 0.3 mg/dL | Ca ([…], time 28 day): 10.3 mg/dL | Cl ([…], time 28 day): 105.8 meq/L | DBIL ([…], time 28 day): 0 mg/dL | GLC ([…], time 28 day): 208 mg/dL | IP ([…], time 28 day): 6.8 mg/dL | K ([…], time 28 day): 4.1 meq/L | LDH ([…], time 28 day): 156 IU/L | Na ([…], time 28 day): 142.2 meq/L | PL ([…], time 28 day): 143.6 mg/dL | RALB ([…], time 28 day): 3.1 g/dL | TBIL ([…], time 28 day): 0.008 mg/dL | TC ([…], time 28 day): 72.8 mg/dL | TG ([…], time 28 day): 100.8 mg/dL | TP ([…], time 28 day): 6.2 g/dL | gamma-GTP ([…], time 28 day): 2.4 IU/L
